From patent publication US9006274B2, “Thiazole derivatives for treating dyskinesias caused by a chemical treatment” (Ipsen Pharma S.A.S., priority 2005, dated 2015) come the findings set out here.

In assay [1] the test system is dyskinesias induced by L-DOPA in rats. In words: Study of dyskinesias induced by L-DOPA (6-OHDA-lesioned dyskinetic rats), score of abnormal and involuntary movements. The class given is in vivo, rat. As to conditions: for effect on rats suffering from induced dyskinesia: oral 10 and 30 mg/kg, dose-dependent, statistically significant effectiveness. An excerpt:
Principle of the In Vivo Test (Experimental Model with Dyskinetic Rats):
An animal model is produced where the dyskinesia is induced in animals treated with L-Dopa (3-(3,4-dihydroxyphenyl)-L-alanine). First of all in order to cause a reduction in the level of endogenous dopamine at the level of the striatum, lesions are produced in the rats using 6-hydroxydopamine (6-OHDA). Following this injection of 6-OHDA, these animals become sensitive to the side-effects of L-dopa. In fact in order to remedy this endogenous dopamine deficiency, the rats receive an L-Dopa based treatment. […] The dyskinesia thus induced is evaluated by a statistical behaviour test.
In fact the L-Dopa passes through the hematoencephalic barrier with difficulty and therefore it can be decarboxylated at the peripheral level.
The study was carried out on young male rats. The rats are anaesthetized (chloral 400 mg/kg). Then they receive 2 stereotaxic injections of 6 μg of 6-hydroxydopamine in the left striatum using a 10 μl Hamilton microsyringe. The rats receive in fine 12 μg of 6-OHDA dissolved in 4 μl of 0.02% L-ascorbate. Four weeks later the lesion to the locus niger is produced in the rats. In order to quantify this lesion, an indirect measurement is used: the rotations induced by apomorphine (substance test). The animals receive a sub-cutaneous injection of 0.5 mg/kg of apomorphine and the right and left rotations of the animals are measured over 30 minutes. A net rotational asymmetry score is then determined. This score is expressed as the number of complete turns in the test cage/minute in the contralateral direction of the lesion.
Six weeks after the 6-hydroxydopamine (6-OHDA) lesions, the selected rats receive a daily intraperitoneal injection of L-Dopa methylester at a dose of 20 mg/kg and benserazide at a dose of 15 mg/kg. The injections take place from week 6 to week 9. From week 10, the rats receive a more concentrated dose: each day they receive an intraperitoneal injection of L-Dopa methylester at a dose of 25 mg/kg and benserazide at a dose of 15 mg/kg. From week 11, the rats receive two daily injections of L-Dopa methylester at a dose of 15 mg/kg and benserazide at a dose of 15 mg/kg. During week 11, the rats are evaluated 3 times per week for their level of abnormal and involuntary movements in order to determine whether the administered doses are sufficient to cause a dyskinesia in these animals. The rats are observed individually from 30 minutes to 180 minutes after injection of the L-Dopa; they are observed every 30 minutes. The movements which are observed at that time are considered to be dyskinetic movements when they meet the following criteria: • the movements are induced by the L-Dopa; • the movements affect the side of the body in the contralateral direction of the lesion; • the movements are repetitive, involuntary and cannot be attributed to normal behaviour.
The abnormal and involuntary movements are classified in 4 sub-types: • locomotive dyskinesia: increase in locomotion of the side contralateral to the lesion; • axial dystonia: deviation of the posture of the neck and of the upper part of the body; • oromandibular dyskinesia: stereotypical movements of the jaws and protrusion of the tongue; • dyskinesia of the anterior limbs: repetitive and rhythmic jerking of the anterior limbs accompanied by a dystonic posture and/or strong grasping movements of the paws.
For each of these sub-types, the rats are marked on a scale of 0 to 4, knowing that: • 0=no movement, • 1=occasional movements, • 2=frequent movements, • 3=continuous movements but interrupted by a sensory distraction, • 4=continuous, acute movements, not interrupted by a sensory distraction.
The compounds according to the invention are tested in order to determine their ability to modulate the effects of the L-Dopa.

Assay [2] concerns tardive orofacial dyskinesia caused by haloperidol in rats. In words: Study of tardive dyskinesia in rats treated with a neuroleptic (haloperidol) over a long period, count of tongue protrusions and mastication movements. The class given is in vivo, rat. As to conditions: for effect on rats suffering from tardive dyskinesia and tardive orofacial dyskinesia caused by haloperidol: oral 10 and 30 mg/kg, dose-dependent effectiveness. An excerpt: Principle of the In Vivo Test (Experimental Model with Rats): […] dyskinesia is a complication resulting from prolonged treatment with for example neuroleptics. It is characterized by repetitive, involuntary movements of the mouth, face and tongue. Long-term treatment with neuroleptics can lead to oromandibular dyskinesia, in particular it can lead to movements of mastication and protrusion of the tongue in rats. The principle of the test is to quantify the abnormal movements of the animals in a test cage during a determined time window (5 minutes). A neuroleptic, haloperidol (originating from Sigma®), is administered over a long period to rats using an Alzet® osmotic pump. This osmotic pump (reference 2ML4 Alzet®) is filled with a solution of haloperidol at 10 mg/ml. This pump is implanted subcutaneously in rats weighing between 150 g and 160 g. After anaesthesia of the rats with isoflurane, a small incision is made in the skin at the level of the scapulae to allow insertion of the pump. Then the incision is sutured. The pump makes it possible to continuously administer haloperidol to the rats at a dose of 2 mg/kg/day for 28 days. […] Before the treatment (t=0) with the compounds to be tested, the rats are placed individually in plastic test cages. […] Results: The rate of protrusion of the tongue and mastication movements is calculated statistically for each group of rats. […] The results presented were obtained with 8 tested animals.

[3] abbreviates: 30 mg/kg orally, 120 minutes after the administration of L-Dopa, control (water) 12 (compound 1) and 12.9 (compound 2).
The mark [4] stands for this setting: 30 mg/kg orally, after 180 minutes of treatment, reduced from 11.3 (compound 1) and from 13.8 (compound 2).

As to `C[C@@H](N)c1nc(-c2cc(C(C)(C)C)c(O)c(C(C)(C)C)c2)cs1.Cl` [Compound 2, 4-{2-[(1R)-1-aminoethyl]-1,3-thiazol-4-yl}-2,6-di-tert-butylphenol hydrochloride], the “score of abnormal and involuntary movements (dyskinesia score, maximum 16 points)” value worked out at 10.6 points in assay [1] (10 mg/kg orally, after 180 minutes of treatment, reduced from 13); 9.7 points in assay [1] (setting [3]); 9 points in assay [1] (setting [4]). In assay [1], the “effect on rats suffering from induced dyskinesia” value is on record as “anti-dyskinetic effect”. In addition, the “rate of protrusion of the tongue” value is on record as 5 in assay [2] (10 mg/kg orally, after 3 hours, counted for 5 minutes, reduced from 11.4) and 6 in assay [2] (30 mg/kg orally, after 3 hours, counted for 5 minutes, reduced from 15). For the same molecule, the “number of mastication movements” value in assay [2] (30 mg/kg orally, after 3 hours, counted for 5 minutes, reduced from 35.5) was found to be 23.7. Also, the “effect on rats suffering from tardive dyskinesia and tardive orofacial dyskinesia caused by haloperidol” value in assay [2] is listed as “anti-dyskinetic effect”.
On to `CC(C)(C)c1cc(-c2csc(CN)n2)cc(C(C)(C)C)c1O.Cl` [Compound 1, 4-[2-(aminomethyl)-1,3-thiazol-4-yl]-2,6-di(tert-butyl)phenol hydrochloride or dihydrochloride], for which the “score of abnormal and involuntary movements (dyskinesia score, maximum 16 points)” value in assay [1] (setting [3]) stood at 10 points; in assay [1] (setting [4]), 9.6 points. The “effect on rats suffering from induced dyskinesia” value in assay [1] is “anti-dyskinetic effect”. In addition, the “score of chewing movements” value in assay [2] (10 mg/kg orally, counted for 5 minutes, reduced from 30.3) stood at 21; in assay [2] (30 mg/kg orally, counted for 5 minutes, reduced from 35.6), 11.9. Also, in assay [2], the “effect on rats suffering from tardive dyskinesia and tardive orofacial dyskinesia caused by haloperidol” value is recorded as “anti-dyskinetic effect”.
